Measured values published in publication doi:10.1101/2022.12.25.521902v1 (biorxiv, 2022).

Test system: MsC17OMT (MsOMT1)
Test: LC-MS/MS methyltransferase assay, Michaelis-Menten fit
Format: biochemical, Mitragyna speciosa
Details: 100 μM SAM, Tris-HCl pH 7.5, 30 °C, 2 min

| Km [µM] | Structure (SMILES) |
| --- | --- |
| 5.3 | C/C=C1/CN2CCc3c([nH]c4ccccc34)[C@@H]2C[C@@H]1/C(=C/O)C(=O)OC [compound 3, 19E-geissoschizine] |
| 12.8 | C/C=C1\CN2CCc3c([nH]c4ccccc34)[C@@H]2C[C@@H]1/C(=C/O)C(=O)OC [compound 4, 19Z-geissoschizine] |
